Where “and” joins values, the source holds several entries; their conditions need not be identical. Identical values can stand only once.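 Method: 48-hour compound exposure of cells in 96-well plates, five concentrations, linear interpolation of endpoints. Abbreviation: GI50, concentration required for 50% inhibition of growth. At the TGI there is no net growth.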
What was measured:
Assay in all cases: growth of human tumour cells (NCI), 48 h
NCI/ADR-RES ovarian = system: NCI/ADR-RES ovarian
SK-MEL-28 melanoma = system: SK-MEL-28 melanoma
K-562 leukemia = system: K-562 leukemia
HOP-62 NSCLC = system: HOP-62 NSCLC
UACC-257 melanoma = system: UACC-257 melanoma
OVCAR-5 ovarian = system: OVCAR-5 ovarian
RXF 393 renal = system: RXF 393 renal
HL-60(TB) leukemia = system: HL-60(TB) leukemia
OVCAR-4 ovarian = system: OVCAR-4 ovarian
HS 578T breast = system: HS 578T breast

SMILES	TGI (NCI/ADR-RES ovarian) [µM]	TGI (SK-MEL-28 melanoma) [µM]	TGI (K-562 leukemia) [µM]	TGI (HOP-62 NSCLC) [µM]	TGI (UACC-257 melanoma) [µM]	TGI (OVCAR-5 ovarian) [µM]	TGI (RXF 393 renal)	TGI (HL-60(TB) leukemia) [µM]	TGI (OVCAR-4 ovarian) [µM]	TGI (HS 578T breast) [µM]	GI50 (NCI/ADR-RES ovarian)	GI50 (SK-MEL-28 melanoma)	GI50 (K-562 leukemia)	GI50 (HOP-62 NSCLC)	GI50 (UACC-257 melanoma)	GI50 (OVCAR-5 ovarian)	GI50 (RXF 393 renal)	GI50 (HL-60(TB) leukemia)	GI50 (OVCAR-4 ovarian)	GI50 (HS 578T breast)
COc1ccc(-c2cc(=O)c3c(O)cc(C)cc3o2)cc1OC	> 100	> 100	> 100	> 100	> 100	> 100	> 100 µM	> 100	> 100	> 100	–	–	–	–	–	–	–	–	–	–
O=C(OCc1ccc2c(Cl)cc(Cl)c(O)c2n1)c1cc2ccccc2[nH]1	5.22	1.62	10.2	3.81	3	1.97	1.08 µM	1.69	1.45	4.48	0.953 µM	0.532 µM	0.336 µM	1.63 µM	0.88 µM	0.65 µM	0.338 µM	0.374 µM	0.596 µM	1.62 µM
CCc1nc(Cl)nc(Cl)c1Cl	9.41	17.7	3.62	21.2	1.87	9.81	4.37 µM	3.59	2.06	9.39	–	–	–	–	–	–	–	–	–	–
CCCSC1=NC2C(N(CC)C(=O)N2CC)N1/N=C/C=C/c1ccccc1[N+](=O)[O-] (stereo not drawn)	8.46	> 100	> 100	> 100	> 100	> 100	8.32 µM	12.1	> 100	> 100	2.5 µM	6.96 µM	2.31 µM	3.79 µM	11 µM	5.65 µM	1.8 µM	3.27 µM	6.72 µM	2.39 µM
C#Cc1cccc(Nc2nc3ccc([N+](=O)[O-])cc3nc2Nc2cccc(C#C)c2)c1	1.1	1.17	0.7	0.476	0.602	1.35	0.618 µM	0.788	0.982	1.72	0.284 µM	0.354 µM	0.216 µM	0.188 µM	0.207 µM	0.338 µM	0.227 µM	0.299 µM	0.218 µM	0.322 µM
COc1cc2nc3cc([N+](=O)[O-])ccc3c(NCCCNCC(C)(C)O)c2cc1OC	25.3	2.5	1.68	0.708	3.1	3.39	1.24 µM	2.95	0.777	5.39	10.5 µM	0.839 µM	0.299 µM	0.169 µM	1.62 µM	0.465 µM	0.297 µM	0.694 µM	0.198 µM	0.511 µM
NC(=O)/C=C/NC(=O)/C=N\O	> 100	> 100	> 100	> 100	> 100	> 100	> 100 µM	> 100	> 100	> 100	–	–	–	–	–	–	–	–	–	–
CC1=C[S+](c2ccccc2)c2cccc3cc4ccccc4c1c23 (stereo not drawn)	> 55.3	1.89	3.85	–	1.68	2.52	2.05 µM	1.03	2.44	14.8	3.87 µM	0.511 µM	0.0712 µM	0.486 µM	0.315 µM	1.11 µM	0.618 µM	0.173 µM	0.773 µM	0.385 µM
COc1ccccc1S(=O)(=O)Nc1ccc2c(c1)CN(C)C(=O)N2	> 100	> 100	> 100	> 100	> 100	> 100	28.3 µM and > 60.2 µM	> 100	> 100	> 100	29.5 µM and 33.3 µM	5.62 µM and 7.41 µM	8.64 µM and 5.18 µM	4.93 µM and 4.22 µM	4.46 µM and 3.86 µM	9.5 µM and 11.7 µM	4.72 µM and 5.16 µM	1.18 µM and 2.7 µM	3.4 µM and 4.28 µM	2.53 µM and 2.23 µM
O=C(CCCCCCSc1nc(-c2ccc(Cl)cc2)cc(-c2ccc(Cl)cc2)n1)NO	2.97	> 50	> 50	6.47	> 50	5.63	2.83 µM	> 50	> 50	> 50	0.998 µM	2.04 µM	1.65 µM	1.52 µM	2.15 µM	1.55 µM	1.07 µM	1.97 µM	1.57 µM	3.23 µM
COc1ccc(-c2csc(-c3cc(Cl)cc(Cl)c3Cl)n2)cc1	> 100	> 100	> 100	> 100	> 100	> 100	> 100 µM	> 100	> 100	> 100	52.2 µM	> 100 µM	46 µM	> 100 µM	62.7 µM	> 100 µM	46.4 µM	78.3 µM	53.8 µM	46.8 µM
C=C(C)[C@@H]1CC[C@]2(COC3CCCCO3)CC[C@]3(C)[C@H](CC[C@@H]4[C@@]5(C)C=C(C=O)C(=O)C(C)(C)[C@@H]5CC[C@]43C)[C@@H]12 (stereo partly drawn)	26.9	2.2	5.98	3.19	4.22	4.21	2.73 µM	5.37	3.89	3.77	3.16 µM	0.734 µM	1.64 µM	1.75 µM	2.06 µM	1.79 µM	1.24 µM	1.56 µM	2.01 µM	1.39 µM
CCOC(=O)c1cc2c(n1Cc1ccccc1)-c1oncc1CC2	6.3	> 100	> 100	> 100	59.7	> 100	30.9 µM	6.59	> 100	17.5	2.01 µM	52.4 µM	2.48 µM	5.3 µM	10.7 µM	16.2 µM	6.88 µM	2.4 µM	7.69 µM	2.75 µM
COc1cnc2c(c1)C(=O)c1c-2n(CCCN2CCCC2)c(=O)c2cc(F)ccc12	3.19	14.7	1.55	0.687	2.2	3.23	1.53 µM	1.13	11.3	13.5	0.467 µM	2.49 µM	0.263 µM	0.212 µM	0.396 µM	0.41 µM	0.36 µM	0.311 µM	0.365 µM	1.69 µM
N#Cc1ccc(C(c2ccc(C#N)cc2)n2cncn2)cc1	> 5000	> 5000	> 5000	> 5000	> 5000	> 5000	–	> 5000	> 5000	> 5000	> 5000 µM	–	3800 µM	915 µM	> 5000 µM	> 5000 µM	18.3 µM	> 5000 µM	> 5000 µM	1540 µM
CCCCCCCCCCCCOC1C(CNC(=O)C2OC3OC(C)(C)OC3C2NC(=O)CN2CCCCCC2)OC2OC(C)(C)OC21 (stereo not drawn)	15.7	3.4	10.9	18.1	8.75	19.5	8.6 µM	4.39	20	18.5	4.14 µM	1.72 µM	3.43 µM	6.48 µM	3.14 µM	6.44 µM	2.87 µM	1.87 µM	6.47 µM	3.79 µM
CCCCC#CC#Cc1cccc(=O)o1	37.4	29	–	34.4	46.7	46.6	> 100 µM	43.1	37.6	51.6	17.2 µM	14.4 µM	–	18.1 µM	22.1 µM	22.3 µM	32.9 µM	15.6 µM	16.4 µM	25.9 µM
CC(=O)OCC1O[C@@H]([S-])C(OC(C)=O)[C@H](OC(C)=O)[C@@H]1OC(C)=O.[Au+].c1ccc(CN2[CH-]N(Cc3ccccc3)C(c3ccccc3)=C2c2ccccc2)cc1	> 100	3.21	–	–	4.05	3.96	3.51 µM	6.12	3.15	6.91	5.21 µM	1.64 µM	–	–	1.84 µM	1.92 µM	1.63 µM	2.24 µM	1.4 µM	2.51 µM
CSc1ccc(/C=C/c2ccnc3ccccc23)cc1	29.5	32.6	30.9	34.8	32.9	35	33 µM	24.4	–	43.4	–	–	–	–	–	–	–	–	–	–
Cc1nc2n(c(=O)c1CCN1CCC(c3noc4cc(F)ccc34)CC1)CCCC2	> 50	> 50	> 50	> 50	–	> 50	> 50 µM	> 50	> 50	> 50	> 50 µM	> 50 µM	> 50 µM	> 50 µM	–	> 50 µM	> 50 µM	> 50 µM	> 50 µM	> 50 µM

From PubChem BioAssay (NCI)
